Measured values from PMC11243693, “Synthesis and Biological Evaluation of New Compounds with Nitroimidazole Moiety” (Molecules, 2024).

Tests used:
[1] = test system: A-549 cells; assay: MTT assay, A-549 cells; format: cell-based, human
Description: (§1) Colon cancer (SW480), breast adenocarcinoma (MDA-MB-231), lung carcinoma (A-549), prostate cancer (PC3), and immortal keratinocyte (HaCaT) cell lines of human origin were acquired from the American Type Culture Collection (ATCC). The recommended culture media and protocols provided by ATCC were as follows: SW480 were cultured in Minimum Essential Medium (MEM), MDA-MB-231, A-549, and HaCaT cells were cultured in Dulbecco’s Modified Eagle Medium (DMEM), while PC3 was cultured in Roswell Park Memorial Institute Medium (RPMI). The culture media were supplemented with 10% fetal bovine serum (FBS), penicillin (100 U/mL), and streptomycin (100 μg/mL). Cells were maintained in a humidified incubator at 37 °C with 5% CO2. Passaging was carried out upon reaching 80–90% confluence using 0.25% trypsin (Gibco Life Technologies, New York, NY, USA) treatment prior to experimentation.
(§2) Cell viability was assessed utilizing the MTT assay, which relies on the conversion of 3-(4,5-dimethylthiazol-2-yl)-2,5-diphenyltetrazolium bromide salt (MTT) to formazan crystals by mitochondrial dehydrogenases in viable cells. Initially, cells were plated in 96-well plates at a density of 1 × 10^4 cells per well and allowed to attach for 24 h at 37 °C in a CO2 incubator. Subsequently, the culture medium was replaced with fresh medium containing various concentrations of the test compounds (ranging from 1 to 100 μM), and cells were further cultured for 24 h at 37 °C in a CO2 incubator. Control wells were left untreated for comparison. After the incubation period, MTT solution (0.5 mg/mL in serum-free medium) was added to each well, followed by a 4-h incubation at 37 °C in a CO2 incubator. The medium was then aspirated, and the formazan crystals were dissolved by adding a mixture of isopropanol and DMSO (1:1). The absorbance of the resulting solution was measured at 570 nm using a UVM 340 reader (ASYS Hitech GmbH, Seekirchen am Wallersee, Austria). IC50 values were determined using GraphPad software (GraphPad Prism 8 Software).

[2] = test system: PC3 cells; assay: MTT assay, PC3 cells; format: cell-based, human; conditions: PC-3; PC3 human metastatic prostate cancer, MTT, 24 h, mean SD
Description: as §1, §2

[3] = test system: MDA-MB-231 cells; assay: MTT assay, MDA-MB-231 cells; format: cell-based, human
Description: as §1, §2

[4] = test system: SW620 cells; assay: MTT assay, SW620 cells; format: cell-based, human; conditions: SW-620; SW620 human metastatic colon cancer, MTT, 24 h, mean SD
[5] = test system: HaCaT cells; assay: MTT assay, HaCaT normal cells; format: cell-based; conditions: HaCaT human immortal keratinocyte (normal cells), 24 h, mean SD
Description: as §1, §2

## COc1ccc(O)c(C=NNC(=O)c2nc([N+](=O)[O-])cn2C)c1 [Compound 31, N’-[(2-hydroxy-5-methoxyphenyl)methylidene]-1-methyl-4-nitro-1H-imidazole-2-carbohydrazide]
[1]; A549, A-549 human lung carcinoma, MTT, 24 h, mean SD
  IC50: > 100 µM
[1]; IC50 for normal cell line (HaCaT)/IC50 A-549
  SI (Selectivity Index): 1
[2]
  IC50: 70.4 ± 2.76 µM
other
  melting point: 236 to 238 °C
[3]; IC50 for normal cell line (HaCaT)/IC50 MDA-MB-231
  SI (Selectivity Index): 1
[3]; MDA-MB-231 human breast adenocarcinoma, MTT, 24 h, mean SD
  IC50: > 100 µM
[4]
  IC50: 86.3 ± 3.81 µM
[5]
  IC50: > 100 µM
